Test results taken from US8623892B2, “Metalloenzyme inhibitor compounds” (Viamet Pharmaceuticals, Inc., priority 2010, dated 2014).

Tests used:
CYP17 = CYP17 (Rattus norvegicus (Rat), UniProt P11715); experiment: Inhibition of CYP17 (pooled rat testicular microsomes); assay type: biochemical
Description: CYP17 activity was assayed according to the following procedure. […] The individual test compound and isozyme inhibitor solutions were then diluted 20-fold with deionized water (50:950 v/v) to concentrations of 135, 27, 4.5, 0.9, 0.15, 0.03 and 0.005 μM. […] For active controls, blank test compound diluent was added in place of test compound solution.

CYP2C9 = CYP2C9 (Homo sapiens (Human), UniProt P11712); experiment: Inhibition of liver cytochrome P450 enzymes (pooled human liver microsomes), CYP2C9; conditions: read-out: CYP2C9 IC50
Description: (§1) Solutions of each test compound were separately prepared at concentrations of 20000, 6000, 2000, 600, 200, and 60 μM by serial dilution with DMSO:MeCN (50:50 v/v). The individual test compound solutions were then diluted 20 fold with DMSO:MeCN:deionized water (5:5:180 v/v/v) to concentrations of 1000, 300, 100, 30, 10, and 3 μM. […] The percent of organic solvent attributable to the test compound or inhibitor mixture in the final reaction mixture was 2% v/v.
(§2) Pooled human liver microsome suspension (20 mg/mL) was diluted with phosphate buffer to obtain a 5 mg/mL suspension. A solution of NADPH was prepared in phosphate buffer at a concentration of 5 mM. Separate stock solutions of each substrate were prepared in DMSO:MeCN (50:50 v/v), mixed, and diluted in phosphate buffer to obtain a single solution containing each substrate at five times its experimentally determined Km concentration. […]
(§3) Substrate solution and microsome suspension were combined in a 1:1 volume ratio, mixed, and distributed to reaction wells of a PCR plate. […] A portion of the supernatant was analyzed by gradient reverse-phase HPLC with detection by electrospray ionization triple quadrupole mass spectrometry in the positive ion mode.
(§4) Data was fitted to sigmoid dose-response curves and the inhibitory potency of each test compound was determined as its IC50 value.

CYP2C19 = CYP2C19 (Homo sapiens (Human), UniProt P33261); experiment: Inhibition of liver cytochrome P450 enzymes (pooled human liver microsomes), CYP2C19; conditions: read-out: CYP2C19 IC50
Description: as §1, §2, §3, §4

Sequence of CYP17 (P11715 whole entry): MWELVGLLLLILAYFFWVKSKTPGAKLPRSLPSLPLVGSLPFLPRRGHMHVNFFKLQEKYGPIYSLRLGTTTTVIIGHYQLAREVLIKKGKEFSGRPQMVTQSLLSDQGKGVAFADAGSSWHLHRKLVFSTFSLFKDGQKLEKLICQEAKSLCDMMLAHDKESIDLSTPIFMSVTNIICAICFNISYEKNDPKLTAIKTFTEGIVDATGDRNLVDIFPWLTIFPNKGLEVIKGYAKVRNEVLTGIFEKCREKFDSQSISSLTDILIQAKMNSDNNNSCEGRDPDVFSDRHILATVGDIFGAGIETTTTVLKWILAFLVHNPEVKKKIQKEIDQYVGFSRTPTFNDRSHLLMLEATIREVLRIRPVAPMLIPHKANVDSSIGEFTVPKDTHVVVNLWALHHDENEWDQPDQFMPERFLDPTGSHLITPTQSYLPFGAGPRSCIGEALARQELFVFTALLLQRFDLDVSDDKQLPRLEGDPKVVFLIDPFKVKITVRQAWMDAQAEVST
Sequence of CYP2C9 (P11712 whole entry): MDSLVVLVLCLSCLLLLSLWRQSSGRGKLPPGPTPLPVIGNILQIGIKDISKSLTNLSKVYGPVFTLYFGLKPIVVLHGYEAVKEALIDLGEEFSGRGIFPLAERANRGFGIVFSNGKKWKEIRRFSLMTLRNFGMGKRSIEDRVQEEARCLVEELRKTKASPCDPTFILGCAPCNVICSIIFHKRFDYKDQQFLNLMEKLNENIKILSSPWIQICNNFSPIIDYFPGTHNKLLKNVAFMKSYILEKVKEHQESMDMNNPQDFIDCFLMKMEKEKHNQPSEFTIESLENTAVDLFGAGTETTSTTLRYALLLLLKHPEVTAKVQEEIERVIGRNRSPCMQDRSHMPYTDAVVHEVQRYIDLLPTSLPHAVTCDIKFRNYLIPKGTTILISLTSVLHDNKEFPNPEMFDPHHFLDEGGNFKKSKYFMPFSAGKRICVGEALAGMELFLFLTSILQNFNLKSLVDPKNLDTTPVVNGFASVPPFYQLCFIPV
Sequence of CYP2C19 (P33261 whole entry): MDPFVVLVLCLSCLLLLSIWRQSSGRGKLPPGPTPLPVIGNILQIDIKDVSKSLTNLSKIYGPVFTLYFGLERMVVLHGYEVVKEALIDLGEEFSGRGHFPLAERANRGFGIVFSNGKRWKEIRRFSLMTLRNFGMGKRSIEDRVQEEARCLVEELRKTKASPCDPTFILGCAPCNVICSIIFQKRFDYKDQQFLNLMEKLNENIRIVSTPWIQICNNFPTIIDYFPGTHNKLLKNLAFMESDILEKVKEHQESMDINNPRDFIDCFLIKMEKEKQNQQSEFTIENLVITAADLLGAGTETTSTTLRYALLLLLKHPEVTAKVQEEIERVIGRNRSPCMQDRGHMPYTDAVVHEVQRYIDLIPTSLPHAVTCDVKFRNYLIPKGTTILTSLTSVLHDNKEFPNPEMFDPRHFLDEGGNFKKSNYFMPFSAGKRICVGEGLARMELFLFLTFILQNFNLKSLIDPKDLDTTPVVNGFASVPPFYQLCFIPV

Row | Structure (SMILES) | IC50 (CYP17) [µM] | IC50 (CYP2C9) [µM] | IC50 (CYP2C19) [µM]
1 | CC(=O)N1CCN(c2ccc(OCC3COC(Cn4ccnc4)(c4ccc(Cl)cc4Cl)O3)cc2)CC1 (centres unmarked) [Ketoconazole, reference compound] | 0.4 |  | 
2 | COc1cc2ccc(C(O)(c3c[nH]nn3)C(C)C)cc2cc1OC (centres unmarked) [Example 1, 1-(6,7-Dimethoxynaphthalen-2-yl)-2-methyl-1-(1H-1,2,3-triazol-4-yl)propan-1-ol] | 0.18 | 39 | 33
3 | COc1cc2cnc(C(O)(c3c[nH]nn3)C(C)C)cc2cc1OC (centres unmarked) [Example 2, 1-(6,7-Dimethoxyisoquinolin-3-yl)-2-methyl-1-(1H-1,2,3-triazol-4-yl)propan-1-ol] | 0.96 |  | 
4 | CC(C)C(O)(c1ccc2cc(-c3cnco3)ccc2c1)c1c[nH]nn1 (centres unmarked) [Example 4, 2-Methyl-1-(6-(oxazol-5-yl)naphthalen-2-yl)-1-(1H-1,2,3-triazol-4-yl)propan-1-ol] | 0.51 |  | 
5 | CC(C)C(O)(c1ccc2cc(OC(F)F)c(OC(F)F)cc2c1)c1c[nH]nn1 (centres unmarked) [Example 3, 1-(6,7-Bis(difluoromethoxy)naphthalen-2-yl)-2-methyl-1-(1H-1,2,3-triazol-4-yl)propan-1-ol] |  | 12 | 19
